# Values quoted from earlier work in US8022179B2 (priority 2005, dated 2011).
# Test system: wrinkles
# Conditions: in vivo; cited from earlier work
sequence,measurement,value
ARGIRELINE,wrinkle reduction,affords wrinkle reduction in certain cases
